Measured values: PubChem BioAssay AID504539 (Broad Institute, 2011)

Test system: Cell-based prion protein 5' UTR reporter, plate reader
Assay: prion protein 5' UTR mRNA inhibitors – cell-based, plate reader, cherry-picked samples, dose response (AID 504539)

Row | SMILES | AC50 [nM]
1 | CSC1SCC2C(=O)N(C)C(C(C)C)C(=O)OCC(NC(=O)c3cnc4ccccc4n3)C(=O)NC(C)C(=O)N(C)C1C(=O)N(C)C(C(C)C)C(=O)OCC(NC(=O)c1cnc3ccccc3n1)C(=O)NC(C)C(=O)N2C (configuration not stated) | < 38
2 | CCCC1=Nc2cc(C(=O)NCCCOCC)ccc2Sc2ccccc21 | 434
3 | Cc1ccc(NC(=O)/C=C/c2ccco2)nc1 | 287
4 | CC(=O)OC1CC2(O)C3CCC4CC(O)CCC4(C)C3CCC2(C)C1C1=CC(=O)OC1 (configuration not stated) | 92
5 | COc1ccc(-c2cc(-c3cccs3)c(C#N)c(SCC(=O)NCc3ccco3)n2)cc1 | 1530
6 | C/C(=N\NC(=O)c1ccccc1NC(=O)c1ccc(Cl)cc1)c1ccncc1 | 418
7 | COc1ccc(OC)c(NS(=O)(=O)c2ccc(N3CCCC3=O)cc2)c1 | 880
8 | Cc1ccc(OCC(=O)c2cc(C)n(-c3ccccc3)c2C)c([N+](=O)[O-])n1 | 3270
9 | CNc1c2cccc(C)c2nc2c(C(=O)NCCN(C)C)cccc12 | 307
10 | COc1ccc(C(=O)NN(C)c2nc(C(F)(F)F)nc3ccccc23)cc1 | 163
11 | CC(=O)OC1(C)CC(C)C(=O)C(C(O)CC2CC(=O)NC(=O)C2)C1 (configuration not stated) | 500
12 | Cc1cc(C(=O)COC(=O)C2=COCCO2)c(C)n1-c1ccccc1 | 1170
13 | CCN1C/C(=C\c2cccc([N+](=O)[O-])c2)C(=O)/C(=C/c2cccc([N+](=O)[O-])c2)C1 | 2350
14 | CC1CC(C)(O)CC(C(O)CC2CC(=O)NC(=O)C2)C1=O (configuration not stated) | 493
15 | Cc1ccc(-c2cn3cc(C)ccc3n2)cc1 | 113
16 | Cc1ccc2nc(-c3ccc4c(c3)OCCO4)cn2c1 | 110
17 | CC1CCc2c(sc(NC(=O)CSc3ncn[nH]3)c2C#N)C1 (configuration not stated) | 257
18 | COc1ccc(CC2NCC(O)C2OC(C)=O)cc1 (configuration not stated) | 168
19 | COc1ccc(C(=O)Nc2nc3ccccc3s2)c(OC)c1 | < 38
20 | COc1cc(C2c3[nH]c4ccccc4c3CC3COC(=O)N32)cc(OC)c1O (configuration not stated) | 270
21 | CCN(CCO)c1ccc(N=Nc2cc(C)[nH]n2)cc1 | 471
22 | Cc1ccc(/C=N/NC(=O)COc2ccccc2-c2ccccc2)cc1 | 172

Row | SMILES | AC50 [nM]
23 | COc1ccc(C(=O)Nc2ccc(C)cn2)c(OC)c1 | 280
24 | CC1=C(C(=O)Nc2ccc(CC(=O)NCc3ccc(OC(C)C)cc3)cc2)SCCO1 | 974
25 | O=C(CN1C(=O)c2ccccc2S1(=O)=O)c1ccc(Cl)cc1Cl | 181
26 | Nc1ncnc2c(C3OC(CO)C(O)C3O)c[nH]c12 (configuration not stated) | 76
27 | O=C(O)c1cccc(-c2noc(-c3cccc(Cl)c3)n2)c1 | 153
28 | Cc1cc(/C=C2\SC(=S)N(C)C2=O)c(C)n1-c1ccc(O)cc1 | 130
29 | O=C1NC2C(O)C(O)C(O)C(O)C2c2cc3c(c(O)c21)OCO3 (configuration not stated) | 1480
30 | COc1ccc(-c2nc(-c3ccccn3)no2)cc1 | 209
31 | N#CC1=C(N)Oc2c(ccc3ccccc23)C1c1ccsc1 (configuration not stated) | 831
32 | O=C(NCCc1ccccc1)c1ccc2c(c1)OCCO2 | 196
33 | CC1CCN(c2ccc(-c3cccc(NC(=O)C(F)(F)F)c3)nn2)CC1 | 194
34 | CC(=O)O[C@H]1[C@H]2O[C@]23[C@@H]2CC[C@]4(O)C[C@@H](O)CC[C@]4(C)C2CC[C@]3(C)[C@H]1c1ccc(=O)oc1 (some centres not stated) | 120
35 | COc1cccc2c1C(=O)c1c(O)c3c(c(O)c1C2=O)CC(O)(C(C)=NNC(=O)c1ccc(Cl)c(Cl)c1)CC3OC1CC(N)C(O)C(C)O1 (configuration not stated) | 1270
36 | O=C(NCCc1ccccc1)c1ccc2c(c1)OCCCO2 | 187
37 | C[C@@H]1O[C@@H](O[C@@H]2C=C3CCC4C(CC[C@]5(C)[C@@H](c6ccc(=O)oc6)CC[C@]45O)[C@@]3(C)CC2)[C@H](O)[C@H](O)[C@H]1O (some centres not stated) | < 38
38 | CC1=Nc2cc(C(=O)NCc3ccco3)ccc2Sc2ccc(C)cc21 | 1670
39 | O=C(/C=C\Nc1ccc2c(c1)OCO2)c1ccccn1 | 173
40 | CC(C)(C)C1C/C(=C/c2ccccn2)C(=O)/C(=C/c2ccccn2)C1 (configuration not stated) | 815
41 | COc1cc(NC(=O)c2cccs2)c(C(=O)OCC(=O)c2cc(C)n(-c3ccccc3)c2C)cc1OC | 989
42 | Cc1cccc2cc(C#N)c(SCC(=O)N3CC(=O)Nc4ccccc43)nc12 | 960
43 | COc1ccccc1-c1nnc2sc(-c3cc4ccccc4o3)nn12 | 4300
44 | O=C(c1ccc(Cl)cc1)N1CCCCC(Sc2nnc(-c3ccc4c(c3)OCO4)o2)C1=O (configuration not stated) | 419

Row | SMILES | AC50 [nM]
45 | CCCCCCN1C=CC(=C2C(=O)c3ccccc3C2=O)C=C1 | 369
46 | O=[N+]([O-])c1cccc2nc3ccccc3c(NCCCn3ccnc3[N+](=O)[O-])c12 | 76
47 | CN(C)c1ccc(/C=C2\SC(=O)N(CCc3nnc(N)s3)C2=O)cc1 | 481
48 | CC(C)CCCCCCCCCCCCC(=O)NCC(=O)NC1C(O)C(O)C(Nc2ncnc3nc[nH]c23)OC1C(O)CO (configuration not stated) | 87
49 | COCCn1c(C)cc(C(=O)CSc2nnnn2C2CCCC2)c1C | 1140
50 | COc1ccc(C(=O)Nc2ccccc2C(=O)N/N=C/c2ccc(O)c(OC)c2)cc1 | 1400
51 | CCCSc1ccc2nc(-c3ccccc3)cn2c1 | 487
52 | COC(=O)C1CCC(=O)N1C(c1ccc(OC)cc1)c1cc(OC)c(OC)c(OC)c1 (configuration not stated) | 676
53 | CN=c1scc(-c2ccccc2F)n1/N=C/c1ccc[nH]1 | < 38
54 | COc1ccc(N=CC2=C(O)c3ccccc3C2=O)c(OC)c1 | 1170
55 | O=[N+]([O-])c1nn(-c2ccc3c(c2)OCCO3)n(O)c1=Nc1ccccc1 | 180
56 | COc1ccc(-n2ncc3c(N4CCCCC4)ncnc32)cc1 | 661
57 | C[C@H]1[C@@H](OS(=O)(=O)O)C[C@@H]2C[C@H]([C@@H](O)c3cc(=O)[nH]c(=O)[nH]3)NC3=NC[C@H]1N32 | 2560
58 | COC1C=CC=C(C)C(=O)NC2=CC(=O)C(N)=C(CC(C)CC(OC)C(O)C(C)C=C(C)C1OC(N)=O)C2=O (configuration not stated) | < 38
59 | O=C(N/N=C/c1c[nH]c2ccccc12)c1[nH]c2ccc(Br)cc2c1-c1ccccc1 | 774
60 | O=C1c2cccc3cc([N+](=O)[O-])cc(c23)C(=O)N1CCN1CCCC1 | 521
61 | CCC(C)Cn1c(O)cc2nn(-c3nc4ccccc4s3)c(=O)c-2c1C (configuration not stated) | 62
62 | CC(C)(C)c1ccc(Oc2ccc(N)cc2)cc1 | 248
63 | CC(=O)N(/N=C1\Sc2ccccc2C1=O)c1ccc(C)cc1C | 4720
64 | O=C(O)CSCC(=O)Nc1ccc(C2CCCCC2)cc1 | 1560
65 | COc1ccc(/C=N/NC(=O)c2[nH]c3ccc(Br)cc3c2-c2ccccc2)cc1 | 209
66 | COc1cc2c(c(OC)c1OC)-c1ccc(O)c(=O)cc1C(NC(C)=O)CC2 (configuration not stated) | 160

Row | SMILES | AC50 [nM]
67 | Cc1ccc(C(=O)O/N=C(\N)c2ccccc2)c(Cl)c1 | 948
68 | C[C@H]1CCC/C=C/[C@@H]2C[C@H](O)C[C@H]2[C@H](O)[C@H](S(=O)c2ccc(O)cc2)CC(=O)O1 (some centres not stated) | 182
69 | Cc1cc(C)c2c(N)c(C(=O)Nc3ncc(C)s3)sc2n1 | 388
70 | Cc1csc(NC(=O)CCc2c(C)nc3cc(-c4ccc(Cl)cc4)nn3c2C)n1 | 1160
71 | COc1ccc(OC)c(Nc2c3c(nc4ccccc24)CCC3)c1 | 1600
72 | COc1cccc(NC(=O)Nc2cccc(C(=O)O)c2)c1 | 645
73 | Cc1cc(NC(=O)CSc2nc(-c3ccco3)cc(C(F)(F)F)n2)no1 | 560
74 | COc1ccc(S(=O)(=O)N2c3cc(Cl)ccc3Oc3nc4ccccc4nc32)cc1 | 1350
75 | CC(C)(O)/C=C/C(=O)C(C)(O)C1C(O)CC2(C)C3CC=C4C(C=C(O)C(=O)C4(C)C)C3(C)C(=O)CC12C (configuration not stated) | 104
76 | c1cc2c(cc1C1=NNC(=NC3CC3)SC1)OCCO2 | 189
77 | O=C(CSc1nnc(-c2ccccc2)o1)Nc1ccccc1F | 675
78 | CN(c1ccc2nc3ccccc3c(=O)n2n1)C1CCCCC1 | 574
79 | C[C@@H]1O[C@@H](O[C@H]2C[C@@H](O)[C@]3(CO)[C@H]4[C@H](O)C[C@]5(C)[C@@H](C6COC(=O)C6)CC[C@]5(O)[C@@H]4CC[C@]3(O)C2)[C@H](O)[C@H](O)[C@H]1O (some centres not stated) | 915
80 | COC1C(C)OC(OC2CC(C)(O)Cc3cc4c(c(O)c32)C(=O)c2c(O)cc3c(c2C4=O)OC2OC3(C)C(O)C(N(C)C)C2O)C(OC)C1(C)OC (configuration not stated) | 118
81 | COc1cc2cc(C(=O)N3CC(COS(C)(=O)=O)c4ccc(O)cc43)[nH]c2c(OC)c1OC (configuration not stated) | < 38
82 | CC1CCC/C=C/C2CC(O)CC2C(O)/C=C/C(=O)O1 (configuration not stated) | 51
83 | CCOCCOC(=O)c1[nH]c2c(c1C)C(=O)CC(c1cccs1)C2 (configuration not stated) | 1700
84 | CC(=O)c1ccc(Oc2cc(C)nc(-n3nc(C)cc3C)n2)cc1 | 1250
85 | COC(=O)CCC(=O)NC(=S)Nc1sc(C)c(C)c1C(N)=O | 636
86 | COc1ccc(C2=Nn3c(nnc3-c3ccccc3OC)SC2)cc1OC1CCCC1 | 2970
87 | CCOC(=O)C(C)Oc1cccc2c(=O)n(CC(=O)NCc3ccccc3)ccc12 (configuration not stated) | 919
88 | O=C(NC1CCCCC1)c1n[nH]c2c1CCCCC2 | 759

Row | SMILES | AC50 [nM]
89 | O=C(Nc1nc2ccccc2[nH]1)c1ccccc1F | 210
90 | COc1ccccc1NC(=O)c1oc2ccccc2c1NC(=O)c1cc(OC)c(OC)c(OC)c1 | 537
91 | Cc1nn(-c2nc3ccccc3[nH]2)c(=O)c2ccccc12 | 145
92 | Cc1ccc(Nc2nc(-c3c(C)nc4ncccn34)cs2)cc1 | 168
93 | COc1c(C=O)c2c(c(OC)c1OC)-c1ccc(OC)c(=O)cc1C(NC(C)=O)CC2 (configuration not stated) | 300
94 | CN(C)c1ccc(Nc2nc(N)c3ccccc3n2)cc1 | 562
95 | Cc1ccc2oc(/N=C(\N)NC(=O)C(C)(C)C)nc2c1 | < 38
96 | CCOc1ccc(NC(=O)c2ccccn2)cc1 | 345
97 | COC(=O)c1ccc(Oc2cc(C)nc(-n3nc(C)cc3C)n2)cc1 | 536
98 | Cc1ccc(C(=O)c2cc([N+](=O)[O-])ccc2N2CCOCC2)c(C)c1 | 2940
99 | COC(=O)c1[nH]c2c(c1C)C(=O)CC(c1cccc(OC)c1)C2 (configuration not stated) | 715
100 | COc1ccc(C2=Nn3c(nnc3-c3ccccc3OC)SC2)cc1OC1CCOC1 (configuration not stated) | 3560
101 | COc1ccc(C(=O)O/N=C(\N)c2ccccn2)cc1 | 99
102 | O=c1cc(-c2ccc(O)cc2)oc2ccc3ccccc3c12 | 629
103 | C[C@H]1CCC/C=C/C2C[C@H](O)CC2[C@H](O)/C=C/C(=O)O1 (some centres not stated) | 40
104 | CN(NC(=O)c1ccccc1F)c1nc(C(F)(F)F)nc2ccccc12 | 1320
105 | O=C(Nc1nc2cc3c(cc2s1)OCCO3)c1ccco1 | 234
106 | Brc1ccc(N=Nc2ccc3ccccc3n2)cc1 | 543
107 | N/C(=N\OC(=O)c1ccc(Cl)cc1Cl)c1ccccn1 | 539
